Experimental findings from PubChem BioAssay (NCI) are described below.

Holding throughout (experiment): inhibition of tumour cell growth, NCI panel, 48 h
Assay [1] has as its system OVCAR-3 ovarian.
In assay [2] the test system is A549 NSCLC.
For assay [3], the system named is NCI-H460 lung.
Assay [4] concerns MDA-MB-435.
In assay [5] the test system is MDA-MB-231 breast.
Assay [6] relates to SNB-19 CNS.
Assay [7] concerns DU-145 prostate.
The subject of assay [8] is HCT-116 colon.
Assay [9] deals with CAKI-1 renal.
The test system of assay [10] is HOP-92 NSCLC.

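Compound exposure: 48 hours, 5 concentrations, 96-well plates. GI50: concentration for 50% inhibition of growth. TGI is the concentration that stops growth completely.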

Turning to `C=CCC(N[C@H](CO)c1ccccc1)c1cn(C(=O)OCC)c2ccccc12` (stereo not given in full), the GI50 is 11.6 µM in [1]; 13.1 µM in assay [2]; 37.3 µM in assay [3]; 18 µM in assay [4]; 15.7 µM in [5]; 22.3 µM in assay [6]. Besides, the GI50 in [7] was 19.3 µM; in [8], 14.7 µM; in assay [9], 12.4 µM; in assay [10], 18 µM. For the same compound, the TGI was 25 µM in [1]; 27.6 µM in assay [2]; more than 100 µM in [3]; 33.4 µM in assay [4]; 31.3 µM in assay [5]; 66.9 µM in assay [6]. Besides, the TGI amounted to 37.3 µM in [7], 28 µM in assay [8], 26.9 µM in assay [9] and 35.7 µM in assay [10].
In the case of `COc1ccc2c(c1)C(c1ccccc1Cl)=Nc1c(n[nH]c1C)N2`, the GI50 was more than 25 µM in assay [1]; 12.5 µM in assay [2]; 18.5 µM in [3]; more than 25 µM in [4]; more than 25 µM in assay [5]; more than 25 µM in [6]. The GI50 in assay [7] is more than 25 µM; in assay [8], 11.2 µM; in [9] it was more than 8.82 µM; in assay [10], more than 25 µM. The TGI in assay [1], in [2], in assay [3], in assay [4], in [5] and in [6] was more than 25 µM in each case. The TGI in assay [7], in [8], in assay [9] and in assay [10] was more than 25 µM in each case.
On to `C/C(=N\N=C(/[Se])N1CC2CCC(CC2)C1)c1ccccn1`, for which the TGI in [1] was 1.61 µM; in assay [2] it was 3.03 µM; in [3], 2.61 µM; in assay [4] it was 0.619 µM; in assay [5], 2.65 µM; in assay [6], 4.06 µM. In addition, the TGI in assay [7] was determined as 1.68 µM; in assay [8] it was 0.878 µM; in assay [9] it was 1.95 µM; in [10], 1.18 µM.
In the case of `Cc1ccc(SC2=CC(=O)c3nc4ccccc4c4ccnc2c34)cc1`, the GI50 in assay [1] is 23.2 µM; in [2], more than 79.8 µM; in [3] it was 61.4 µM; in assay [4], 16.3 µM; in assay [5] it was 23.4 µM; in assay [6], more than 71.2 µM. Besides, the GI50 in [7] is 43 µM; in assay [8], 22.7 µM; in [9], 25.5 µM; in assay [10], 20 µM. Further, the TGI in [1] was more than 54.7 µM; in assay [2], more than 100 µM; in assay [3], more than 100 µM; in assay [4], 31.2 µM; in assay [5] it was 60 µM; in assay [6], more than 100 µM. For the same compound, the TGI is more than 67.4 µM in [7], more than 56.8 µM in assay [8], 63.8 µM in [9] and 38.2 µM in assay [10].
Regarding `COC(=O)C1(F)C(=O)NC(=O)NC1O` (stereo not given), the TGI in [1], in assay [2], in assay [3], in assay [4], in [5] and in [6] was more than 100 µM in each case. The TGI in assay [7], in assay [8], in assay [9] and in assay [10] was more than 100 µM throughout.
As for `Cc1cc(Cc2cc(C)cc(C(C)(C)C)c2O)c(O)c(C(C)(C)C)c1`, the GI50 is 3.97 µM in [1]; 3.86 µM in [2]; 3.64 µM in assay [3]; 7.82 µM in [4]; 9.83 µM in assay [5]; 13.1 µM in [6]. Moreover, the GI50 in [7] is 4.9 µM; in [8], 3.13 µM; in [9] it was 2.36 µM; in [10], 4.37 µM. Besides, the TGI in assay [1] is 13.1 µM; in assay [2], 13.2 µM; in [3] it was 12 µM; in assay [4] it was 22.2 µM; in assay [5] it was 21.7 µM; in [6], 25.8 µM. The TGI in [7] was found to be 16.6 µM; in assay [8], 11.7 µM; in [9] it was 8.03 µM; in assay [10], 16 µM.
Consider `COc1ccc(Cl)cc1NC(=O)C(Br)C(Br)C(=O)O` (stereo not given), for which the GI50 in [1] is 2.63 µM; in assay [2], more than 74.3 µM; in assay [3] it was 38 µM; in assay [4], 4.27 µM; in [5], 9.23 µM; in assay [6] it was 27.9 µM. Also, the GI50 in assay [7] is 35.7 µM; in assay [8], 3.09 µM; in assay [9] it was 16.7 µM; in assay [10], 12.8 µM. In addition, the TGI is 6.81 µM in assay [1]; more than 100 µM in assay [2]; more than 100 µM in [3]; 20.7 µM in assay [4]; 26 µM in assay [5]; more than 68.7 µM in [6]. Also, the TGI in assay [7] was more than 100 µM; in assay [8] it was 9.49 µM; in [9] it was 49.1 µM; in assay [10], 33.1 µM.
Regarding `Cc1c2c[n+](C(C)C)ccc2c(C)c2c1[nH]c1ccccc12`, the GI50 in [1] is 2.61 µM; in assay [2] it was 2.55 µM; in [3], 2.44 µM; in assay [4], 3.2 µM; in assay [5], 4.86 µM; in [6], 0.416 µM. The GI50 in [7] is 4.74 µM; in assay [8] it was 4.36 µM; in [9], more than 100 µM; in [10], 1.86 µM. Further, the TGI in [1] is 12.2 µM; in [2], more than 100 µM; in [3], 10.9 µM; in assay [4], 13.2 µM; in [5] it was 43 µM; in assay [6] it was 14.7 µM. The TGI in assay [7] was 54.1 µM; in [8], 68.2 µM; in [9], more than 100 µM; in assay [10], 6.95 µM.
